Six compounds from US6984619B1, “Method for protection against tumor metastasis formation” (Arch Development Corporation, priority 1999, dated 2006) can be followed below.

“Also recorded” adds a separate entry of the source.

The target in one experiment is T1, MMP-9 (Homo sapiens, UniProt P14780).
T1 construct: Medium was isolated at the indicated times, centrifuged at 1000 rpm for 5 min to remove debris; endogenous in cells; host or cells: U251 human glioma cells (serum-free conditioned medium)
Nature of the experiment: Gelatin zymography of medium from treated U251 glioma cells, MMP-9. Format: cell-based. The settings on record: for reduction of MMP-9 activity/secretion: 10 mM. Here is the method: (§1) U251 Glioma Cells were grown to confluence in 6-well plates. Medium was removed, the cells washed twice with 37° C. PBS, and serum-free medium added. The cells were treated as follows: • Control—24 h, 48 h 72 h • 40 μM SH—24 h, 48 h 72 h (continuous exposure) • 10 ng/ml TNFα—24 h, 48 h, 72 h (continuous exposure). Medium was isolated at the indicated times, centrifuged at 1000 rpm for 5 min to remove debris, and stored at −80° C. until use. Protein was quantitated using the Bradford method. 252 ng of protein was loaded on 10% zymogram (gelatin) gels (Novex, San Diego, Calif.) and electrophoresed at 125 volts for 90 min in Tris-Glycine SDS buffer. After running, the gels were incubated in zymogram renaturing buffer (100 ml) for 30 min at room temperature with gentle agitation. The buffer was removed and fresh zymogram developing buffer (100 ml) added and the gels incubated at 37° C. overnight with gentle agitation. The following day the gels were stained with 0.5% coomassie blue R-250 for 30 min, and destained. Areas of protease activity show up as clear bands. This assay will detect MMP-2 and MMP-9.
(§2) Same protocol as above. Treatment conditions were as follows: • Control—24 h • 4 mM SH—24 h (continuous exposure) • 10 mM L-NAC—24 h (continuous exposure) • 10 mM L-NAC—24 h (continuous exposure) • 10 mM Captopril—24 h (continuous exposure) • 50 mM EDTA—24 h (chelator) • 4 mM SH+50 mM EDTA—24 h • 10 mM L-NAC+50 mM EDTA—24 h • 10 mM D-NAC+50 mM EDTA—24 h • 10 mM Captopril+50 mM EDTA—24 h • 40 μM SH—24 h • 10 ng/ml TNFα—24 h

The target of the next experiment is T2, MMP-2 (Homo sapiens, UniProt P08253).
T2 construct: Medium was isolated at the indicated times, centrifuged at 1000 rpm for 5 min to remove debris; endogenous in cells; host or cells: U251 human glioma cells (serum-free conditioned medium)
T2 sequence (P08253 110-660): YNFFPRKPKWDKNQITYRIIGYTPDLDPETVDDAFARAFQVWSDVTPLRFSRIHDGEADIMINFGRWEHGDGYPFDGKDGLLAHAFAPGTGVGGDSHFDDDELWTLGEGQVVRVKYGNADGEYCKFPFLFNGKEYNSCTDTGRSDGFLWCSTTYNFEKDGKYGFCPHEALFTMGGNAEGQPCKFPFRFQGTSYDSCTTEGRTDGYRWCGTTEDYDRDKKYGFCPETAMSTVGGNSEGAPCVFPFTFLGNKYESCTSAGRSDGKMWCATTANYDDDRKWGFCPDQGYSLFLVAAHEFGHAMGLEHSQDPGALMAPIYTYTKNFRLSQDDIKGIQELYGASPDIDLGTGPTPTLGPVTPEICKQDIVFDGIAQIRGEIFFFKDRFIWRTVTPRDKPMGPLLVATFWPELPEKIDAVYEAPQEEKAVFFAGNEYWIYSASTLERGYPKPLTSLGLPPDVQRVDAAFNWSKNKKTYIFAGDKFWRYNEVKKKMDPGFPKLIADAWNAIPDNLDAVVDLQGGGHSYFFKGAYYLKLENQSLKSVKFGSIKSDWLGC
Nature of the experiment: Gelatin zymography of medium from treated U251 glioma cells, MMP-2. Format: cell-based. Conditions: for reduction of MMP-2 activity/secretion: 10 mM; for reduction of MMP-2 activity/secretion / inhibition of MMP-2 activity/secretion: 24 h. Here is the method: as §1, §2

A further experiment concerns MnSOD gene expression. In words: MnSOD gene expression in glioma cells (Northern blot). Format: cell-based, human. From the text: FIG. 6. Effect of Amifostine on MnSOD Expression. Kinetics of manganese superoxide dismutase (MnSOD) gene expression induced in human glioma tumor cells as a function of time by WR1065, the active form of amifostine, are presented for comparison. Also included in the upper right hand corner is a representative Northern blot used to quantitate gene expression. Gene expression was induced over 3-fold as compared to untreated controls.
As previously discussed, manganese superoxide dismutase (MnSOD) has been identified as important anti-oxidant gene whose expression reduces the malignant/metastatic phenotype of cancer cells (Safford et al., 1995). Tumor cells are relatively lower in MnSOD than are normal cells. Increasing MnSOD in tumor cells causes them to loose their ability to be metastatic. As described in FIG. 6, exposure of tumor cells to WR-1065 leads to enhanced gene expression of MnSOD. […] The peak level of MnSOD expression was almost twice that observed in normal human endothelial cells exposed to WR-1065.

Where [1] appears, read: TNFα 10 ng/ml, continuous exposure.

T1 sequence (P14780 94-707): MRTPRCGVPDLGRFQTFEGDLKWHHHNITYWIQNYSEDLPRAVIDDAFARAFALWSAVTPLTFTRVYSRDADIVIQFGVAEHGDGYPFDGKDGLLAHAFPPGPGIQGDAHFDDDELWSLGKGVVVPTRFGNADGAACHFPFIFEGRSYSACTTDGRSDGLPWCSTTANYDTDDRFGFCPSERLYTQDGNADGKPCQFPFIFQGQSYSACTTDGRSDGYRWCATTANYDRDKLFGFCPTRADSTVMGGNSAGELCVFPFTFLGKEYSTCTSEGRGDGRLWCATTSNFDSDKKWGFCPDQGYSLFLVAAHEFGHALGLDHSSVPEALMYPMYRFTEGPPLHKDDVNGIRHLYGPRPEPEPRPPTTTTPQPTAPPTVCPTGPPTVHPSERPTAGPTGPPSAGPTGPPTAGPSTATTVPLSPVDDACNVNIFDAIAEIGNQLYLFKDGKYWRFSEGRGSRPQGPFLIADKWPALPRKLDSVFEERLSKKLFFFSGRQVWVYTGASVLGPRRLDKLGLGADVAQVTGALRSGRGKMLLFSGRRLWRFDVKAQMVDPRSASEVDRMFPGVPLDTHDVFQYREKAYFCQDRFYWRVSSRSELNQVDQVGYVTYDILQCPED

Turning to `C[C@H](CS)C(=O)N1CCC[C@H]1C(=O)O` [Captopril], the “reduction of MMP-9 activity/secretion” value on MMP-9 (24 h) is “completely inhibited”. In addition, on MMP-2, the “reduction of MMP-2 activity/secretion” value is on record as “completely inhibited”.
For `CC(=O)N[C@H](CS)C(=O)O` [D-NAC], the “reduction of MMP-9 activity/secretion” value at MMP-9 (24 h) was 85%. Besides, the “reduction of MMP-2 activity/secretion” value at MMP-2 was determined as 74%.
Regarding `O=C(O)CN(CCN(CC(=O)O)CC(=O)O)CC(=O)O` [EDTA], the “inhibition of MMP-9 activity/secretion” value against MMP-9 (50 mM EDTA, 24 h) is “completely inhibiting; also recorded: completely inhibited; also recorded: completely blocked”. Besides, on MMP-2 (50 mM EDTA), the “inhibition of MMP-2 activity/secretion” value is “completely inhibiting; also recorded: completely inhibited; also recorded: completely blocked”.
With `CC(=O)N[C@@H](CS)C(=O)O` [L-NAC, N-acetyl-L-cysteine], the “reduction of MMP-9 activity/secretion” value at MMP-9 (24 h) is on record as 73%. Besides, the “reduction of MMP-2 activity/secretion” value on MMP-2 stood at 69%.
Turning to `NCCCNCCS` [WR-1065, 2-[(aminopropyl)amino]ethanethiol], on MMP-9 (40 μM SH, continuous exposure), the “ability to affect MMP-9 activity at 48 h and 72 h” value is “lost”. In addition, the “reduction of MMP-9 activity relative to control” value on MMP-9 (40 μM WR-1065 (SH), 24 h) worked out at 5%. Besides, the “inhibition of MMP-9 activity/secretion” value against MMP-9 (4 mM WR-1065 (SH), 24 h) is reported as “completely inhibiting”; against MMP-9 (4 mM WR-1065 (SH), 24 h, listed as SH) it was “completely inhibited”. Further, the “ability to reduce MMP-2 secretion at 48 h and 72 h” value on MMP-2 (40 μM SH, continuous exposure) was “lost”. Moreover, the “reduction of MMP-2 activity/secretion relative to control” value at MMP-2 (40 μM WR-1065 (SH), 24 h (b119 prints 45 h)) was 45%. The “MMP-2 activity, of control levels” value at MMP-2 (40 μM, 24 h exposure) was 55%. Besides, the “inhibition of MMP-2 activity/secretion” value against MMP-2 (4 mM WR-1065 (SH)) was “completely inhibiting”; at MMP-2 (4 mM WR-1065 (SH), listed as SH), “completely inhibited”. Further, the “peak level of MnSOD expression relative to normal human endothelial cells exposed to WR-1065” value in the experiment on MnSOD gene expression (U87 glioma cells versus normal human endothelial cells) was “almost twice”. Further, in the experiment with MnSOD gene expression (human glioma U87 cells, 12 to 24 h), the “MnSOD gene expression during an additional 12 h” value is on record as “remained at that elevated level”. In the experiment on MnSOD gene expression (human glioma U87 cells, after 12 h), the “MnSOD gene expression enhanced” value was 2.5 fold. In addition, the “MnSOD gene expression induced as compared to untreated controls” value with MnSOD gene expression (human glioma tumor cells, FIG. 6 legend) is listed as “over 3 fold”.
For Tumor Necrosis Factor alpha [TNFα], the “MMP-9 activity at 48 h and 72 h” value at MMP-9 (setting [1]) is “continued to cause enhanced activity”. In addition, the “suppression of MMP-2 secretion at 48 h and 72 h” value at MMP-2 (setting [1]) is reported as “still able to suppress”.
